In patent publication US9656981B2, “Peripherally-acting cannabinoid receptor agonists for chronic pain” (The Regents of the University of California, priority 2012, dated 2017):
Read-outs that look alike come from different tables or passages of the source.

Tests used:
[1] = tested on: sciatic nerve entrapment (SNE) neuropathy; assay: SNE neuropathy, mechanical allodynia (von Frey); format: in vivo, rat; conditions: for effect of pretreatment with the CBR blocker on the anti-allodynic effect of PrNMI: blocker before PrNMI 0.6 mg/kg, SNE rats; for SNE Neuropath Assay-% return to pre-drug (0.3 mg/kg) contralateal threshold at 2-3 h / effect on contralateral hindpaw withdrawal thresholds / effect on SNE-induced mechanical allodynia (ipsilateral hindpaw withdrawal thresholds): 0.3 mg/kg; for effect on contralateral hindpaw withdrawal thresholds: hindpaw contralateral to SNE; for effect on SNE-induced mechanical allodynia (ipsilateral hindpaw withdrawal thresholds): systemic injection
Procedure: The effectiveness of CBR agonists was tested for alleviating the painful symptoms of neuropathy induced by unilateral sciatic nerve entrapment (SNE)^131. The peripheral neuropathy induced by SNE is highly comparative to that of chronic constriction injury (CCI), which uses chromic gut suture materials instead of polyethylene cuffs^132. […] This increased excitability is at least in part attributable to injury-induced post-transcriptional transport of the voltage-gated sodium channel 1.8 (NaV1.8) mRNA, axonal accumulation of NaV1.8 mRNA, and its local protein translation leading to the increased NaV1.8 functional expression in injured nerve^136. The hyperexcitability and ectopic burst discharge of primary sensory neurons are widely considered to be the major contributors to pain symptomatology of peripheral neuropathy models. The SNE-induced mechanical allodynia effectively models the most common complaint of human neuropathy patients of dynamic mechanical allodynia. Behavioral measurements of mechanical sensitivity were conducted before and after induction of SNE as follows:
Rats are placed in a plastic-walled cage (10×20×13 cm) with a metal mesh floor (0.6×0.6 cm holes) and allowed to acclimate for 10 min. The amount of pressure (g) needed to evoke a hindpaw withdrawal response is measured 4 times on each paw separated by 30-s intervals using a von Frey-type digital meter (Model 1601C, IITC Instr.). Results of 4 tests/session are averaged for each paw.

[2] = Plasma stability assay; format: in vitro ADME; conditions: rat plasma, 10 μM
Procedure: Compounds are incubated at 10 μM in rat plasma at 37° C. A solution of each compound is prepared in ethanol at a concentration of 1 mM. A 2.5 μL volume of the 1 mM solution is added to 247.5 μL of rat plasma (male Sprague Dawley) in a glass test tube in a 37° C. water bath. Samples (50 μL) are removed at 0, 30 and 60 min and immediately extracted with 3 volumes (150 μL) of methanol. Samples are centrifuged (2500 rpm for 10 min at 4° C.) to pellet protein and supernatants transferred to LC/MS vials for analysis. Samples are stored at −80° C. prior to analysis.

[3] = target: CB1R (Homo sapiens, UniProt P21554); assay: CB1R radioligand displacement binding assay (CP55940 radioligand)
Procedure: Heterologous competition binding assays were performed to calculate receptor affinities. Unlabeled SR141716 or SR144528 were used as appropriate controls for non-specific binding (NSB) in the assay. Calculation of the equilibrium dissociation constant (Ki) was performed using the Cheng-Prusoff equation.

[4] = target: CB2R (Homo sapiens, UniProt P34972); assay: CB2R radioligand displacement binding assay (CP55940 radioligand)
Procedure: Detailed radioligand displacement assays (using the well-characterized CBR agonist […] as the radioligand) were conducted to determine the affinity (Ki) of the test compounds for CB1R and CB2R as has been previously described by our group^112,113. Heterologous competition binding assays were performed to calculate receptor affinities. Unlabeled SR141716 or SR144528 were used as appropriate controls for non-specific binding (NSB) in the assay. Calculation of the equilibrium dissociation constant (Ki) was performed using the Cheng-Prusoff equation.

[5] = S9 fraction stability assay; format: in vitro ADME; conditions: rat liver S9, 10 μM
Procedure: Compounds are incubated at 10 μM in rat (male Sprague Dawley) liver S9 at 37° C. Each compound is prepared in ethanol at a concentration of 1 mM. An assay mixture containing S9 (1 mg protein/mL final concentration) and an NADPH regenerating system (NADP [1 mM final], glucose 6-phosphate [5 mM final] and glucose 6-phosphate dehydrogenase [1 U/mL final]) in a buffer consisting of 50 mM KPO4 phosphate buffer, pH 7.4 with 3 mM MgCl2 is prepared and preincubated at 37° C. for 5 min. A 10 μL volume of the 1 mM solution is added to 990 μL of assay mixture in a glass test tube @ 37° C. to initiate the assay. Samples (50 μL) are removed at 0, 15, 30, 60 and 120 min and immediately extracted with 3 volumes (150 μL) of methanol, centrifuged to pellet protein and supernatants transferred to LC/MS vials for analysis.

[6] = tested on: rats; assay: Rotarod test of the tetrad; format: in vivo, rat
Procedure: Rats were tested for motor function and the ataxic effects of novel drugs as described previously^151-153. To determine drug effects on motor coordination, rats are trained 72 h before the test (3 sessions 24 h apart) to remain for at least 180 s on a rotarod revolving at an acceleration of 4-40 revs over 5 min). Rats are tested immediately before vehicle or drug injections and tested again at 2, 6, 24 and 48 hrs after injection. The time for which the rats are able to remain on the rotarod is recorded up to a cut-off of 5 min.

[7] = target: human CB1R (hCB1R) (Homo sapiens, UniProt P21554); assay: human CB1R (hCB1R) calcium flux assay; format: cell-based; conditions: Table 1; read-out: Ca Flux % Emax
Description: Compounds were first screened for: a) CB1R and CB2R binding, b) CB1R agonist activity using the human CB1R (hCB1R) calcium flux assay, and c) BBB permeability using the Madin-Darby canine kidney (MDCK-MDR1) cell line assay.
The calcium 3 dye assays were run according to manufacturer's specifications (http://www.moleculardevices.com/Products/Assay-Kits/GPCRs/FLIPR-Calcium.html) and as reported in our previous publications^112,113. Briefly, wells of black clear-bottom 96-well tissue culture-treated plates are seeded with 20,000 cells the afternoon before assay. The day of assay, the cells are incubated with the Ca^2+ indicator dye for 1 hr @ 37° C. For antagonist assays, the test compound is preincubated with the cells during the last 10 min of the dye incubation. Basal or unstimulated fluorescence intensity is recorded in the FlexStation @ 37° C. for 13 sec followed by the addition of test compound or CP 55,940 (depending on the assay endpoint). Fluorescence intensity is recorded for an additional 47 sec. The effect of test compound in each well is determined by subtracting the minimum from the maximum fluorescence during the 47-sec recording period.

[8] = tested on: rats; assay: Catalepsy (ring) test of the tetrad; format: in vivo, rat
Procedure: Catalepsy (ring) test. Catalepsy was determined with a ring immobility test^154, modified for rats^139, 153. Rats are placed with their forepaws on a horizontal metal ring (12 cm diameter) at a height that allows their hindpaws to just touch the bench surface. Immobility is recorded as the time for the rat to move off the ring with a 100 s cutoff. Rats are tested before vehicle/drug injections and again at various times after injection.

[9] = tested on: rats; assay: Hypothermia test of the tetrad; format: in vivo, rat; conditions: 2-3 hr
Procedure: Rats are acclimated to a plastic restrainer apparatus (Model RTV-180 Braintree Scientific Inc.) on the day of testing by placing them in the restrainer twice for 5 min separated by 20 min. Baseline core temperature is taken before treatment, and the rectal temperature is measured again at various times after injection of the CB1R ligands.

[10] = read-out: CB1R binding affinity (Ki)
[11] = Table 1, CP55940 radioligand, read-out: CB1_KI_CP
[12] = Table 1, CP55940 radioligand, read-out: CB2_KI_CP

Chain of CB2R (P34972 whole entry): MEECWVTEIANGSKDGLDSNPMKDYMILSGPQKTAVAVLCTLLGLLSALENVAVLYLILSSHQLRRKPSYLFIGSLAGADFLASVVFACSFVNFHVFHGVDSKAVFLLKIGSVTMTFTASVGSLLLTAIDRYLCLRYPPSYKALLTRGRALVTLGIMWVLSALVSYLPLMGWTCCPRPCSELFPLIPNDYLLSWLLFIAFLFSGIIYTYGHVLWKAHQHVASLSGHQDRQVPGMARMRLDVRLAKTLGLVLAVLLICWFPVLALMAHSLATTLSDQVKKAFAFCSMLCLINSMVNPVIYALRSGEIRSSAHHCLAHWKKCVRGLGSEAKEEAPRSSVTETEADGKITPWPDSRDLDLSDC
Chain of human CB1R (hCB1R) (P21554 whole entry): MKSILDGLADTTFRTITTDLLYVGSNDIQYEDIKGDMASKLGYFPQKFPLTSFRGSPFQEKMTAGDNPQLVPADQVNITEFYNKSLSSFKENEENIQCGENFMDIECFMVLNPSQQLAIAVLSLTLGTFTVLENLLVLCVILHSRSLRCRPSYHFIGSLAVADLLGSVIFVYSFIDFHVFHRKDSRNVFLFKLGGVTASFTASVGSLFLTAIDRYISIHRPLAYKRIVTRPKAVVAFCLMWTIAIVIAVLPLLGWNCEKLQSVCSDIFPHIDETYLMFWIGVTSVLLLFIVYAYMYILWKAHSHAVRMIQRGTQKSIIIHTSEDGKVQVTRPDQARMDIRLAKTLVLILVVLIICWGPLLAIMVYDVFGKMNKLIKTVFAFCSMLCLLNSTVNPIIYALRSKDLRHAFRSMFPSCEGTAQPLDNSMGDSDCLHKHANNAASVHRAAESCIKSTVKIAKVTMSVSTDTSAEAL
Chain of CB1R (P21554 whole entry): as above

For CCCCCn1cc(C(=O)c2ccc(C(=O)OC)c3ccccc23)c2ccccc21 [Compound 54, methyl 4-(1-pentyl-1H-indole-3-carbonyl) naphthalene-1-carboxylate], the “SNE Neuropath Assay-% return to pre-drug (0.3 mg/kg) contralateal threshold at 2-3 h” value (shortened to “SNE Neuropath Assay-% return to pre-drug”) [1] was 0%, the “Plasma % remaining @ xy min” value ([2]; 30 min) was 9.6 @ 30% and the Ki [3, 10] was 20 nM. The Ki [4] was 73.4 nM, the “S9% remaining @ xy min” value ([5]; 30 min) was 2.62 @ 30% and the “S9% remaining @ xy min” value ([5]; 30 min, listed as 4-carbomethoxy ester) was 3%.

With SR144528 [reference compound] the “effect of pretreatment with the CBR blocker on the anti-allodynic effect of PrNMI” value [1] was “little effect”.

For CCCCCn1cc(C(=O)c2ccc(C(=O)CC)c3ccccc23)c2ccccc21 [Compound 61, 1-[4-(1-pentyl-1H-indole-3-carbonyl)naphthalen-1-yl]propan-1-one], the “Plasma % remaining @ xy min” value ([2]; 60 min) was 75 @ 60%, the Ki [3, 11] was 5.71 nM and the Ki [4] was 32.7 nM. The “S9% remaining @ xy min” value ([5]; 60 min) was 3 @ 60%.

With CCCCCn1cc(C(=O)c2cccc3ccccc23)c2cc(F)ccc21 [Compound 63, 5-fluoro-3-(naphthalene-1-carbonyl)-1-pentyl-1H-indole] the “Plasma % remaining @ xy min” value ([2]; 60 min) was 99 @ 60%, the Ki [3, 11] was 9.85 nM and the Ki [4, 12] was 65 nM. For the same molecule, the “S9% remaining @ xy min” value ([5]; 60 min) was 13 @ 60%.

In the case of CCCCCn1cc(C(=O)c2cccc3ccccc23)c2c(F)cccc21 [Compound 62, 4-fluoro-3-(naphthalene-1-carbonyl)-1-pentyl-1H-indole], the “Plasma % remaining @ xy min” value ([2]; 60 min) is reported as 69 @ 60%, the Ki [3, 11] is reported as 6.5 nM and the Ki [4, 12] is reported as 35.6 nM. For the same molecule, the “S9% remaining @ xy min” value ([5]; 60 min) was 5 @ 60%.

With Cc1c(C(=O)NN2CCCCC2)nn(-c2ccc(Cl)cc2Cl)c1-c1ccc(Cl)cc1 [SR141617A, rimonabant, reference compound] the “effect of pretreatment with the CBR blocker on the anti-allodynic effect of PrNMI” value [1] was “completely blocked”.

With CCCCCn1cc(C(=O)c2cccc3ccccc23)c2cccc(F)c21 [Compound 65, 7-fluoro-3-(naphthalene-1-carbonyl)-1-pentyl-1H-indole] the “Rotarod % change from pre-drug (0.3 mg/kg) at 2-3 hr” value [6] was 0%, the “SNE Neuropath Assay-% return to pre-drug” value [1] was 18.6% and the Emax [7] was 79%. For the same molecule, the “Plasma % remaining @ xy min” value ([2]; 60 min) was 97 @ 60%, the Ki [3, 11] was 3.62 nM and the “Catalepsy % change from pre-drug (0.3 mg/kg) at 1-3 hrs” value [8] was 0%. The Ki [4, 12] was 2.7 nM, the “S9% remaining @ xy min” value ([5]; 30 min) was ~58% and the “S9% remaining @ xy min” value ([5]; 60 min) was 50%. For the same molecule, the “S9% remaining @ xy min” value ([5]; 120 min) was 36% and the “Hypothermia % change from predrug (0.3 mg/kg) at 2-3 hr” value [9] was 0%.

In the case of COC(=O)c1ccc(C(=O)c2cn(CCN3CCOCC3)c3ccccc23)c2ccccc12 [Compound 56, methyl 4-{1-[2-(morpholin-4-yl)ethyl]-1H-indole-3-carbonyl} naphthalene-1-carboxylate], the “Plasma % remaining @ xy min” value ([2]; 60 min) is reported as 0 @ 60%, the Ki [3, 11] is reported as 52.4 nM and the Ki [4] is reported as 61.4 nM. For the same molecule, the “S9% remaining @ xy min” value ([5]; 60 min) was 0 @ 60%.

With “4-{2-[(1E)-2-[(4- methoxy- naphthalen-1- yl)methylidene]- 1H-inden-3- yl]ethyl} morpholine [Compound 10]” the “effect on contralateral hindpaw withdrawal thresholds” value [1] was “Neither ENMI nor 13339-135-25 had any significant effect”.

In the case of CCCCCn1cc(C(=O)c2cccc3ccccc23)c2ccc(F)cc21 [Compound 64, 6-fluoro-3-(naphthalene-1-carbonyl)-1-pentyl-1H-indole], the “effect on SNE-induced mechanical allodynia (ipsilateral hindpaw withdrawal thresholds)” value [1] is reported as “anti-allodynic effects”, the “SNE Neuropath Assay-% return to pre-drug” value [1] is reported as 54.4% and the Ki [3, 11] is reported as 2.35 nM. For the same molecule, the Ki [4, 12] was 16.4 nM.

For CCCc1ccc(C(=O)c2cn(CCCCCF)c3cccc(F)c23)c2ccccc12 [Compound 67, 4-fluoro-1-(5-fluoropentyl)-3-(4-propyl-naphthalene-1-carbonyl)-1H-indole], the “Plasma % remaining @ xy min” value ([2]; 60 min) was 95 @ 60%, the Ki [3, 11] was 2.55 nM and the Ki [4] was 3.61 nM. The “S9% remaining @ xy min” value ([5]; 60 min) was 6 @ 60%.

With CCc1ccc(/C=C2\C=C(CCN3CCOCC3)c3ccccc32)c2ccccc12 [Compound 8, 4-{2-[(1E)-1-[(4-ethylnaphthalen-1-yl)methylidene]-1H-inden-3-yl]ethyl} morpholine] the Emax [7] was 121%, the Ki [3] was 1 nM and the Ki [3, 11] was 0.86 nM. The Ki [4, 12] was 0.79 nM.

In the case of C1=C(CCN2CCOCC2)c2ccccc2/C1=C/c1cccc2ccccc12 [Compound 11, 4-{2-[(1E)-1-(naphthalen-1-ylmethylidene)-1H-inden-3-yl]ethyl} morpholine], the “effect in the rotarod assay” value ([6]; 0.3 mg/kg, intraperitoneal) is reported as “complete lack of effects”, the “Rotarod % change from pre-drug (0.3 mg/kg) at 2-3 hr” value [6] is reported as 0% and the “effect on SNE-induced mechanical allodynia (ipsilateral hindpaw withdrawal thresholds)” value [1] is reported as “anti-allodynic effects”. For the same molecule, the “SNE Neuropath Assay-% return to pre-drug” value [1] was 37.8%, the “effect on contralateral hindpaw withdrawal thresholds” value [1] was “Neither ENMI nor 13339-135-25 had any significant effect” and the Emax [7] was 103%. The “Plasma % remaining @ xy min” value ([2]; 30 min) was 95 @ 30%, the Ki [3, 10] was 4.69 nM and the “effect in the catalepsy assay” value ([8]; 0.3 mg/kg, intraperitoneal) was “complete lack of effects”. The “Catalepsy % change from pre-drug (0.3 mg/kg) at 1-3 hrs” value [8] was 0%, the Ki [4, 12] was 5.62 nM and the “S9% remaining @ xy min” value ([5]; 30 min) was 35 @ 30%. The “Hypothermia % change from predrug (0.3 mg/kg) at 2-3 hr” value [9] was 0%.
